The subject of one data set is Escherichia coli. Briefly: Antibacterial activity Escherichia coli ATCC 25922 assessed as inhibition of bacterial growth incubated for 24 hrs by Muller hinton broth based dilution assay. The data set is classed as functional.
The subject of data set [1] is Acinetobacter baumannii. Briefly: Antibacterial activity against Acinetobacter baumannii ATCC 17978 assessed as inhIbition of bacterial growth incubated for 24 hrs by Muller hinton broth based dilution assay. The data set is classed as functional.
For data set [2], the system named is Staphylococcus aureus. The data set can be described thus: Antibacterial activity against Methicillin-resistant Staphylococcus aureus N315 assessed as inhibition of bacterial growth incubated for 24 hrs by Muller hinton broth based dilution assay. The format is functional.
For data set [3], the system named is Staphylococcus aureus. The data set can be described thus: Antibacterial activity against Methicillin-resistant Staphylococcus aureus NCTC10442 assessed as inhibition of bacterial growth incubated for 24 hrs by Muller hinton broth based dilution assay. The format is functional.
Data set [4] can be described thus: Hemolytic activity in rabbit RBC incubated for 1 hrs by fluorescence based microplate reader assay. The note with it: rabbit red blood cells (erythrocytes). The data set is classed as toxicity, cell-based, Oryctolagus cuniculus, Erythrocyte.
A further data set deals with Pseudomonas aeruginosa. Briefly: Antibacterial activity Pseudomonas aeruginosa ATCC 9027 assessed as inhibition of bacterial growth incubated for 24 hrs by Muller hinton broth based dilution assay. The format is functional.
Data set [5] relates to Acinetobacter baumannii. Briefly: Antibacterial activity against Acinetobacter baumannii R2889 assessed as inhIbition of bacterial growth incubated for 24 hrs by Muller hinton broth based dilution assay. The data set is classed as functional.
In data set [6] the test system is Staphylococcus aureus. Briefly: Antibacterial activity against Staphylococcus aureus ATCC 29213 assessed as inhibition of bacterial growth incubated for 24 hrs by Muller hinton broth based dilution assay. The data set is classed as functional.

For `Cn1c2ccccc2c2c(OCC3CO3)cccc21` (stereo not drawn), the MIC with Escherichia coli, in the data set on Acinetobacter baumannii [1], in the data set on Staphylococcus aureus [2], in the data set with Staphylococcus aureus [3], in the data set with Pseudomonas aeruginosa and with Acinetobacter baumannii [5] was > 50 µg/mL each time. In addition, the MIC with Staphylococcus aureus [6] was > 50 µg/mL. Besides, in data set [4], the HC50 at 1 h is > 200 µg/mL.

Consider `CCCCCCCn1c2ccccc2c2c(OCC3CO3)cccc21` (stereo not drawn), for which the MIC in the data set with Escherichia coli, in the data set with Acinetobacter baumannii [1], in the data set with Staphylococcus aureus [2], with Staphylococcus aureus [3], with Pseudomonas aeruginosa and in the data set with Acinetobacter baumannii [5] was > 50 µg/mL throughout. Moreover, the MIC in the data set with Staphylococcus aureus [6] was > 50 µg/mL. For the same molecule, the HC50 at 1 h in data set [4] was > 200 µg/mL.

Take `CCCCCCCCCn1c2ccccc2c2c(OCC3CO3)cccc21` (stereo not drawn): the MIC in the data set with Escherichia coli, in the data set with Acinetobacter baumannii [1], in the data set on Staphylococcus aureus [2], with Staphylococcus aureus [3], in the data set with Pseudomonas aeruginosa and with Acinetobacter baumannii [5] was > 50 µg/mL each time. Moreover, the MIC in the data set on Staphylococcus aureus [6] was > 50 µg/mL. The HC50 at 1 h in data set [4] was > 200 µg/mL.

For the molecule `FC(F)(F)CCCn1c2ccccc2c2c(OCC3CO3)cccc21` (stereo not drawn), the MIC in the data set with Escherichia coli, in the data set with Acinetobacter baumannii [1], in the data set on Staphylococcus aureus [2], in the data set with Staphylococcus aureus [3], with Pseudomonas aeruginosa and in the data set on Acinetobacter baumannii [5] was > 50 µg/mL throughout. The MIC in the data set on Staphylococcus aureus [6] was > 50 µg/mL.

Consider `c1ccc2c(c1)[nH]c1cccc(OCC3CO3)c12` (stereo not drawn), for which the MIC with Escherichia coli, in the data set with Acinetobacter baumannii [1], in the data set with Staphylococcus aureus [2], in the data set on Staphylococcus aureus [3], in the data set on Pseudomonas aeruginosa and with Acinetobacter baumannii [5] was > 50 µg/mL each time. Also, in the data set on Staphylococcus aureus [6], the minimal inhibitory concentration (MIC) was > 50 µg/mL. Moreover, the HC50 at 1 h in data set [4] is > 200 µg/mL.

For `CCCCCn1c2ccccc2c2c(OCC3CO3)cccc21` (stereo not drawn), the MIC in the data set with Escherichia coli, in the data set on Acinetobacter baumannii [1], in the data set on Staphylococcus aureus [2], with Staphylococcus aureus [3], with Pseudomonas aeruginosa and in the data set with Acinetobacter baumannii [5] was > 50 µg/mL in each case. The MIC in the data set on Staphylococcus aureus [6] was > 50 µg/mL. In addition, the HC50 at 1 h in data set [4] was > 200 µg/mL.

In the case of `CC(C)=CCn1c2ccccc2c2c(OCC3CO3)cccc21` (stereo not drawn), the MIC with Escherichia coli, with Acinetobacter baumannii [1], in the data set with Staphylococcus aureus [2], in the data set on Staphylococcus aureus [3], in the data set on Pseudomonas aeruginosa and with Acinetobacter baumannii [5] was > 50 µg/mL throughout. Also, in the data set on Staphylococcus aureus [6], the MIC is > 50 µg/mL. For the same molecule, the HC50 at 1 h in data set [4] is > 200 µg/mL.

In the case of `CCCn1c2ccccc2c2c(OCC3CO3)cccc21` (stereo not drawn), the MIC with Escherichia coli, with Acinetobacter baumannii [1], with Staphylococcus aureus [2], in the data set with Staphylococcus aureus [3], in the data set with Pseudomonas aeruginosa and in the data set on Acinetobacter baumannii [5] was > 50 µg/mL in each case. Besides, in the data set on Staphylococcus aureus [6], the MIC was > 50 µg/mL. In data set [4], the HC50 at 1 h was > 200 µg/mL.

A word on the MIC: it is the smallest concentration in the dilution series that meets the test's criterion for growth inhibition. Broadly, the HC50 is the concentration that lyses half of the red blood cells. The low end stands for more damage to red cells, the high end for less damage to red cells.

The values are drawn from ChEMBL document CHEMBL5214910, “Rational Design of Dipicolylamine-Containing Carbazole Amphiphiles Combined with Zn2+ as Potent Broad-Spectrum Antibacterial Agents with a Membrane-Disruptive Mechanism” (J Med Chem, 2021).
